Consider two compounds from ChEMBL document CHEMBL5316313, “Discovery of Novel 3-Phenylpiperidine Derivatives Targeting the β-Catenin/B-Cell Lymphoma 9 Interaction as a Single Agent and in Combination with the Anti-PD-1 Antibody for the Treatment of Colorectal Cancer” (J Med Chem, 2023).

Series [1] in a line: Microsomal stability in mouse liver microsomes assessed as half life at […] and measured upto 60 mins by LC-MS/MS analysis. The class given is ADME, Microsome.
Series [2] deals with CT26. Kind of series: cells. The conditions noted are these: Mus musculus, CT26, 48 h.
Series [3] has as its system CT26. In words: Synergistic antitumor activity in mouse CT26 cells xenografted in BALB/c mouse assessed as decrease in Foxp3-positive Treg cells in TIME tumor cells at 30 mg/kg, ip QD in presence of anti-PD-1 antibody cotreatment at 10 mg/kg,ip BIW by flow cytomtery. The class given is functional, organism-based.
The nature of series [4]: Toxicity in BALB/c mouse xenografted with mouse CT26 cells assessed as pathological changes in bone marrow at 30 mg/kg, ip QD by hematoxylin and eosin staining based microscopic analysis. As to conditions: in vivo. The class given is organism-based.
Series [5] deals with CT26. In words: Synergistic antitumor activity in mouse CT26 cells xenografted in BALB/c mouse assessed as increase in IFNgamma-positive CD8+ T cell infiltration into tumor at 30 mg/kg, ip QD in presence of anti-PD-1 antibody cotreatment at 10 mg/kg,ip BIW by flow cytometry. It is filed as functional, organism-based. Background: In flow cytometry, cells or beads pass a laser one at a time.

The nature of series [6]: Toxicity in BALB/c mouse xenografted with mouse CT26 cells assessed as pathological changes in kidney at 30 mg/kg, ip QD in presence of anti-PD-1 antibody cotreatment at 10 mg/kg,ip BIW by hematoxylin and eosin staining based microscopic analysis. The class given is organism-based. The conditions noted are these: in vivo.
Series [7] can be described thus: Toxicity in BALB/c mouse xenografted with mouse CT26 cells assessed as body weight loss at 30 mg/kg, ip QD and measured upto 9 days. The class given is organism-based. The conditions noted are these: in vivo, 216 h, time < 9 day.
Series [8] in a line: Toxicity in BALB/c mouse xenografted with mouse CT26 cells assessed as adverse effect at 30 mg/kg, ip QD and measured upto 9 days. The class given is organism-based. The conditions noted are these: in vivo, 216 h, time < 9 day.
The next series has as its system HCT-116. Kind of series: Antiproliferative activity against Wnt-dependent human HCT-116 cells assessed as cell growth inhibition incubated for 48 hrs by CellTiter-Glo assay. The class given is functional, cell-based. Background: ATP-based viability assays read luminescence as a measure of living cells.
Another series concerns HEK293. Kind of series: Induction of apoptosis in Wnt-independent human HEK293 cells assessed as viable cells at 10 uM incubated for 24 hrs by Annexin V-Alexa Fluor 647/PI staining based flow cytomtery (Rvb=70.5%). The class given is functional. The conditions noted are these: read-out: Activity.
Series [9] concerns the target T1, beta-catenin-B-cell lymphoma 9 protein complex (Homo sapiens, UniProt P35222).
T1 sequence (P35222 whole entry): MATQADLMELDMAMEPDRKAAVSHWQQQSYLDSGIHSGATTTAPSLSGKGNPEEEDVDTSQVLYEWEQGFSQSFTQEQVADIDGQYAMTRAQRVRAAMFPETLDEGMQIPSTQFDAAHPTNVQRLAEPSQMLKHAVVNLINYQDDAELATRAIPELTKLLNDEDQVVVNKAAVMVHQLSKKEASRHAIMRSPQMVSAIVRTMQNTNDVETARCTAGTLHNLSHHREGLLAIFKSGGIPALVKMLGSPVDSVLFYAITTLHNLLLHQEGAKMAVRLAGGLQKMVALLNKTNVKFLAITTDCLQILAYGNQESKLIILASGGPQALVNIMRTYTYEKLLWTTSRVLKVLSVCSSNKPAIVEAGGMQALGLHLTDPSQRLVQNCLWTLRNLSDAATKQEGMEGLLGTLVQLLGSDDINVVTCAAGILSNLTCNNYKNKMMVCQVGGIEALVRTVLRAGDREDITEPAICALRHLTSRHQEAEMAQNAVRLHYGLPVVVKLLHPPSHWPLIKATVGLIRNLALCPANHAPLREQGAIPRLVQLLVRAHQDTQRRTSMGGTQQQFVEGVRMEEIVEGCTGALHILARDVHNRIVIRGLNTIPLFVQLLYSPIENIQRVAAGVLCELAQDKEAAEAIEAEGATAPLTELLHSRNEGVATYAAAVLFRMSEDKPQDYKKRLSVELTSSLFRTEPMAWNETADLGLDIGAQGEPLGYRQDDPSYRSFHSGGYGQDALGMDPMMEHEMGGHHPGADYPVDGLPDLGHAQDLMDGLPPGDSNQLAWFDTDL
T1 sequence (O00512 whole entry): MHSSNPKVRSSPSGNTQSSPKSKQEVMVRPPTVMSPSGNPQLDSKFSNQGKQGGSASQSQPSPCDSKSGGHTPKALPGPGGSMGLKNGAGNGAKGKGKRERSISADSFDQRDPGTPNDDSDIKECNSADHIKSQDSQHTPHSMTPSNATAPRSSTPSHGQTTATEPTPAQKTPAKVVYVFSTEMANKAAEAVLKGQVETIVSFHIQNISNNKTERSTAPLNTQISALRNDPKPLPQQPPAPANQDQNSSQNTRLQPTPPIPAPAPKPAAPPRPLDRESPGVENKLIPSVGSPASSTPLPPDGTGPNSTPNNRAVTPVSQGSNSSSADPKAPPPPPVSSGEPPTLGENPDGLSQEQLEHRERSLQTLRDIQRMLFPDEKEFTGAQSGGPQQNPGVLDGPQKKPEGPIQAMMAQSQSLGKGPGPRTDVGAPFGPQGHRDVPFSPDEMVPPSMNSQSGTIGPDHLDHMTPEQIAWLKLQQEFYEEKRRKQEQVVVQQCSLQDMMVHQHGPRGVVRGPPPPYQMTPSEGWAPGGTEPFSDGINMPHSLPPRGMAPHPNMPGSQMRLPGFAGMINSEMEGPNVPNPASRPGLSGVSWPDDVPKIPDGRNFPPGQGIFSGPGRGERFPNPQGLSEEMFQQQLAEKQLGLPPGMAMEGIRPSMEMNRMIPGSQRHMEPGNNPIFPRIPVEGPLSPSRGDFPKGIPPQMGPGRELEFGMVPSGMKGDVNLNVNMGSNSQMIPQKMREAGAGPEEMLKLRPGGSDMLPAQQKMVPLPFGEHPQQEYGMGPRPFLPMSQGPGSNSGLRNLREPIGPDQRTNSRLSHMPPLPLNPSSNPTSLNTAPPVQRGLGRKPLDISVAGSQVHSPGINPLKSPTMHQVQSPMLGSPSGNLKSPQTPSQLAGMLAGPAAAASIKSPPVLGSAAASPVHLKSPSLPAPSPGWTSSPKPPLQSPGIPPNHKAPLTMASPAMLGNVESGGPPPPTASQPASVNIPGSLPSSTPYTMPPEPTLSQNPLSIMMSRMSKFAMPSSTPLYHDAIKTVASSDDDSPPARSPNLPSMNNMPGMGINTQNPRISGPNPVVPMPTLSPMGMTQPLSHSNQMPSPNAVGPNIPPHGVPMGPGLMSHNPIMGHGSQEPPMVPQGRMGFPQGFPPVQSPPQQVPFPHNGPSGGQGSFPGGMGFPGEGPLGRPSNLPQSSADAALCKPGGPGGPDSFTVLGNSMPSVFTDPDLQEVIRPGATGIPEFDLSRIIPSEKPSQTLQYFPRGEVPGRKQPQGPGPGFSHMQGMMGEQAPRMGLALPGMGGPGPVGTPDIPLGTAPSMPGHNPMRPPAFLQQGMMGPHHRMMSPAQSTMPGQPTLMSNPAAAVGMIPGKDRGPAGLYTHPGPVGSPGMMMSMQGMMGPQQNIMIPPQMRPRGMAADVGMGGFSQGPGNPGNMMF
In words: Inhibition of beta-catenin/BCL9 protein-protein interaction in Wnt-dependent human HCT-116 cells assessed as reduction in Axin2 expression level by qRT-PCR assay. The class given is cell-based. A general note: In qPCR the cycle at which signal appears reflects the starting amount.

The structures appear in SMILES notation. Active and inactive are the calls of the source.

With `CC(C)c1ccc(-c2cccc(S(=O)(=O)N3CCCC(c4cccc(OC(C)(C)C(=O)NS(=O)(=O)c5ccc(C(F)(F)F)cc5)c4)C3)c2)cc1` (stereo unspecified), the half-life (as a rule, the time needed for the level to fall by half in the phase considered) in [1] amounted to 20.9 min. Besides, 69.7 µM corresponded to half-maximal inhibition in the series with CT26 [2] (IC50). Besides, the outcome with CT26 [3], in the series with CT26 [5] and in the series on HCT-116 was Active. For the same compound, the Activity entry in series [4], in series [6], in series [7] and in series [8] was “Non-Toxic” throughout. For the same compound, in the series with HEK293, the viability at 10 µM came to 70.8%.

With `O=C1[C@H](Cc2ccc(O)cc2)N2C(=O)CCN(C(=O)NCc3ccccc3)[C@H]2CN1Cc1cccc2ccccc12`, the IC50 (as a rule, the concentration at which inhibition is half-maximal) in [9] is 2.69 µM.
